{
  "source": "patent US11850256B2",
  "about": "“Small molecule-mediated restoration of airway surface physiology in human cystic fibrosis lung epithelia” (The Board of Trustees of the University of Illinois, priority 2016, dated 2023)",
  "system": "CF primary human lung epithelia",
  "test": "ASL bacterial killing in CF primary human lung epithelia (S. aureus)",
  "type": "cell-based",
  "conditions": "2 μM",
  "method": "CF primary human lung epithelia were prepared and maintained in vitro as previously described. Pezzulo A A et al. (2012) Nature 487: 109-113. These cells were treated with AmB or C35deOAmB at a final concentration of 2 μM for 1 minute, then washed and maintained in culture for 48 h, and then bacterial killing was measured.\nIncreased ASL viscosity, a downstream effect of ASL pH acidification, contributes to the inability to clear mucus and bacteria from the lung. […] ASL pH is also closely correlated to the ability of antimicrobial proteins in the ASL to enact bacterial killing. To connect the observed AmB-mediated increase in ASL pH with a meaningful increase in ASL bacterial killing, AmB treated epithelia were tested against a human strain of S. aureus. Pezzulo A A et al. (2012) Nature 487: 109-113.",
  "data": [
    {"smiles": "C[C@@H]1[C@H](O)[C@@H](C)/C=C/C=C/C=C/C=C/C=C/C=C/C=C/[C@H](O[C@@H]2O[C@H](C)[C@@H](O)[C@H](N)[C@@H]2O)C[C@@H]2O[C@](O)(C[C@@H](O)C[C@@H](O)[C@H](O)CC[C@@H](O)C[C@@H](O)CC(=O)O[C@H]1C)C[C@H](O)[C@H]2C(=O)O", "note": "[AmB, amphotericin B]", "values": [
      {"measurement": "percent killing (ASL bacterial killing)", "setting": "killing measured after 48 h, control about 25 percent", "value": "about 40%"},
      {"measurement": "effect on ASL bacterial killing", "setting": "vs control", "value": "increased ASL bacterial killing"}
    ]}
  ]
}
